Assay results from patent US8476302B2, “α-ketoamide derivatives useful endothelial lipase inhibitors” (Janssen Pharmaceutica N.V., priority 2010, dated 2013).
Where “and” joins values, the source holds several entries; their conditions need not be identical. Identical values can stand only once.

How the values were obtained:
[1] = biological target: T1, human endothelial lipase (EL) (Homo sapiens, UniProt Q9Y5X9); test: Endothelial Lipase Assay, cell surface lipase activity (human); format: cell-based; conditions: cells expressing human EL, PLA1 substrate 10 μM, fluorescence reaction rate; several values in a cell are repeat determinations
T1 construct: host or cells: cells expressing human endothelial lipase
T1 sequence (Q9Y5X9 21-500): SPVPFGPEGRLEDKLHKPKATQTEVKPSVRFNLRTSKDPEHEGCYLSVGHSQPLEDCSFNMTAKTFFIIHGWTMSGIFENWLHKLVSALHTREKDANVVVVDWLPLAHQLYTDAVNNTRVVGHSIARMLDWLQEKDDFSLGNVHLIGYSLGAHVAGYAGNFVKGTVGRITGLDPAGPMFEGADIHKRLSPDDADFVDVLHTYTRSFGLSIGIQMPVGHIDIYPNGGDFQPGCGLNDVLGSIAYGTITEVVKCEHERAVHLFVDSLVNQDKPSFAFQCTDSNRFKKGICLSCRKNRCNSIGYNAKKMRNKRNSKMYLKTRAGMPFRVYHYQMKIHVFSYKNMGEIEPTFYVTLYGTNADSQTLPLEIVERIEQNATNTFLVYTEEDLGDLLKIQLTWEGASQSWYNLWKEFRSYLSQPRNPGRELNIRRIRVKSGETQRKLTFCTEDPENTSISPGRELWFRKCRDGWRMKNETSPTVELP
Protocol: (§1) Endothelial Lipase Assay (Human/Mouse)
(§2) To assay for cell surface lipase activity, cells expressing human endothelial lipase (EL) or LPL were plated in CellBIND® 384-well plates (Corning, Lowell, Mass.) in 25 μL serum free medium at a density of 2000 cells/well. After 18-24 hours incubation at 37° C., the medium was removed and replaced with 15 μL assay buffer [Hank's Buffered Saline Solution with 25 mM HEPES pH 7.2] and 15 μL PLA1 for a final concentration of 10 μM using a Multidrop reagent dispenser. Fluorescence signal was monitored for 30 min at 37° C. on a Safire II plate reader in kinetic mode (60 cycles, kinetic interval: 30 seconds) with an excitation wavelength of 490 nm and an emission wavelength of 515 nm. Linear regression of the fluorescence intensity collected from 480 to 1500 seconds was used to calculate the reaction rate (the slope) and the slopes were used to calculate IC50 values where appropriate. The amount of BODIPY-labeled product generated was calculated at the 30 min time point as determined from standard curve analysis of purified BODIPY FL C5. In all studies using the inhibitor Ebelactone B, consistent results were obtained when it was dissolved as a stock in DMSO, immediately before use.

Mouse EL = biological target: T2, Mouse EL (Mus musculus, UniProt Q9WVG5); test: Endothelial Lipase Assay, cell surface lipase activity (mouse); format: cell-based; conditions: PLA1 substrate 10 μM, fluorescence reaction rate, several values in a cell are repeat determinations
T2 construct: host or cells: not described for mouse EL
T2 sequence (Q9WVG5 21-500): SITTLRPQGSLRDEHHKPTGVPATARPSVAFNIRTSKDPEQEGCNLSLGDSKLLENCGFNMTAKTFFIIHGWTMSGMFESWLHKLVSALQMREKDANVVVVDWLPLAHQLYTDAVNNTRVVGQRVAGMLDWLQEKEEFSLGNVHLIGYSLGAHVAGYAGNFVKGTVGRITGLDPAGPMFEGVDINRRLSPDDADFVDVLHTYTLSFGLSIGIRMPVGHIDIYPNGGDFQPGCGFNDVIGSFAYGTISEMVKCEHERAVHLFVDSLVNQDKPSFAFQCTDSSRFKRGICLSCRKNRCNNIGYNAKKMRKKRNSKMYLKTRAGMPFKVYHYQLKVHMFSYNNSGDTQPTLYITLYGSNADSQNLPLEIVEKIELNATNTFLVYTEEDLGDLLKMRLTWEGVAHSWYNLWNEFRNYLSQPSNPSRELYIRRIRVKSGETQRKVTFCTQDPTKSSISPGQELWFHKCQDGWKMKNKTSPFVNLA
Protocol: as §1, §2

| IC50 [1] | IC50 (Mouse EL) | SMILES |
| --- | --- | --- |
| 677 nM | 346 nM | CN(Cc1ccc(F)c(F)c1)c1ccc(-c2nnc(CNC(=O)C(=O)CCCCCCc3ccccc3)o2)cc1 [Compound 110] |
| 247 nM | 135 nM | O=C(CCCCCCc1ccccc1)C(=O)NCc1nnc(-c2ccc(Oc3ccccc3)cc2)o1 [Compound 179] |
| 3070 nM | 1950 nM | O=C(CCCCCCc1ccccc1)C(=O)NCc1nnc(-c2ccc(OCc3cccc(Cl)c3)cc2)o1 [Compound 76] |
| 178 nM | 196 nM | O=C(CCCCCCc1ccccc1)C(=O)NCc1nnc(-c2ccc(OCc3ccccn3)cc2)o1 [Compound 88] |
| 515 nM | 254 nM | CC(C)(C)OC(=O)N(Cc1ccccc1)c1ccc(-c2nnc(CNC(=O)C(=O)CCCCCCc3ccccc3)o2)cc1 [Compound 115] |
| 268 nM and 552 nM | 435 nM and 396 nM | O=C(CCCCCCc1ccccc1)C(=O)NCc1nnc(-c2ccc(C(F)(F)F)cc2)o1 [Compound 22] |
| 4890 nM | 1720 nM | O=C(CCCCCCc1ccccc1)C(=O)NCc1nnc(-c2cccc(Oc3ccccc3)c2)o1 [Compound 58] |
| 78 nM | 50 nM | N#Cc1cccc(COc2ccc(-c3nnc(CNC(=O)C(=O)CCCCCCc4ccccc4)o3)cc2)c1 [Compound 117] |
| 121 nM | 64 nM | COC(=O)c1cccc(COc2ccc(-c3nnc(CNC(=O)C(=O)CCCCCCc4ccccc4)o3)cc2)c1 [Compound 83] |
| 325 nM | 289 nM | O=C(CCCCCCc1ccccc1)C(=O)NCc1nnc(-c2ccc(NCc3ccccc3)cc2)o1 [Compound 116] |
| 288 nM | 182 nM | CC(C)(C)OC(=O)N(Cc1cccnc1)c1ccc(-c2nnc(CNC(=O)C(=O)CCCCCCc3ccccc3)o2)cc1 [Compound 123] |
| 16600 nM | 20700 nM | CN(C)c1ccc(-c2nnc(CNC(=O)C(=O)CCCCCCc3ccccc3)o2)cc1 [Compound 24] |
| 471 nM | 187 nM | O=C(CCCCCCc1ccccc1)C(=O)NCc1nnc(-c2ccc(OCc3cccc(F)n3)cc2)o1 [Compound 121] |
| 2590 nM | 1110 nM | O=C(CCCCCCc1ccccc1)C(=O)NCc1nnc(-c2ccc(Oc3ccc(Cl)cc3)cc2)o1 [Compound 59] |
| 1510 nM | 973 nM | O=C(CCCCCCc1cncnc1)C(=O)NCc1nnc(-c2ccc(Oc3ccccc3)cc2)o1 [Compound 120] |

The next lines start with the molecule.

| SMILES | IC50 [1] | IC50 (Mouse EL) |
| --- | --- | --- |
| O=C(CCCCCCc1ccccc1)C(=O)NCc1nnc(-c2ccccc2)s1 [Compound 74] | 219 nM | 436 nM |
| O=C(CCCCCCc1ccc(C(F)(F)F)nc1)C(=O)NCc1nnc(-c2ccc(Oc3ccccc3)cc2)o1 [Compound 136] | 595 nM | 406 nM |
| Cc1ccc(-c2nnc(CNC(=O)C(=O)CCCCCOc3ccccc3)o2)cc1 [Compound 47] | 3190 nM | 3030 nM |
| Cc1cc(COc2ccc(-c3nnc(CNC(=O)C(=O)CCCCCCc4ccccc4)s3)cc2)ccn1 [Compound 174] | 78 nM | 51 nM |
| O=C(CCCCCOc1cc(F)cc(F)c1)C(=O)NCc1nnc(-c2ccc(OCc3ccccc3)cc2)o1 [Compound 100] | 1330 nM | 551 nM |
| O=C(CCCCCCc1ccc(F)nc1)C(=O)NCc1nnc(-c2ccc(OCc3ccnc(Cl)c3)cc2)s1 [Compound 169] | 85 nM | 62 nM |
| O=C(CCCCCOc1cccc(F)c1)C(=O)NCc1nnc(-c2cccc(Oc3ccccc3)c2)o1 [Compound 56] | 3250 nM | 2290 nM |
| O=C(CCCCCCc1ccc(F)nc1)C(=O)NCc1nnc(-c2ccc(OCc3ccncc3)cc2)s1 [Compound 159] | 240 nM | 174 nM |
| O=C(CCCCCCc1ccccc1)C(=O)NCc1nnc(-c2ccc(OCc3ccnc(F)c3)cc2)s1 [Compound 152] | 115 nM and 42 nM | 207 nM and 48 nM |
| O=C(CCCCCOc1ccc(F)cc1F)C(=O)NCc1nnc(-c2ccc(OCc3ccccc3)cc2)o1 [Compound 99] | 2150 nM | 1050 nM |
| O=C(CCCCCCc1ccccc1)C(=O)NCc1nnc(-c2ccc(OCc3cccc(F)n3)cc2)s1 [Compound 151] | 712 nM | 661 nM |
| O=C(CCCCCOc1ccccc1)C(=O)NCc1nnc(-c2ccc(Oc3ccccc3)cc2)o1 [Compound 52] | 2610 nM | 1800 nM |
| O=C(CCCCCOc1cc(F)ccc1F)C(=O)NCc1nnc(-c2ccc(Oc3ccccc3)cc2)o1 [Compound 98] | 1730 nM | 774 nM |
| COc1cccc(OCCCCCC(=O)C(=O)NCc2nnc(-c3ccccc3)o2)c1 [Compound 63] | 5450 nM | 6120 nM |
| O=C(CCCCCOc1cccc(F)c1)C(=O)NCc1nnc(-c2ccc(Oc3ccccc3)cc2)o1 [Compound 55] | 340 nM | 384 nM |
| O=C(CCCCCCc1ccc(F)nc1)C(=O)NCc1nnc(-c2ccc(OCc3ccccn3)cc2)s1 [Compound 167] | 360 nM | 217 nM |
| O=C(CCCCCOc1cccc(F)c1)C(=O)NCc1nnc(-c2ccc(Oc3ccc(Cl)cc3)cc2)o1 [Compound 57] | 3780 nM | 1100 nM |

| SMILES | IC50 [1] | IC50 (Mouse EL) |
| --- | --- | --- |
| COc1cccc(CCCCCCC(=O)C(=O)NCc2nnc(-c3ccc4ccccc4c3)o2)c1 [Compound 31] | 141 nM | 120 nM |
| O=C(CCCCCOc1ccccc1)C(=O)NCc1nnc(-c2cccc(Oc3ccccc3)c2)o1 [Compound 60] | 7120 nM | 9800 nM |
| O=C(CCCCCCc1ccccc1)C(=O)NCc1nnc(-c2ccc(OCc3cc[n+]([O-])cc3)cc2)s1 [Compound 156] | 397 nM | 383 nM |
| O=C(CCCCCCc1ccc(F)nc1)C(=O)NCc1nnc(-c2ccc(OCc3ccnc(F)c3)cc2)s1 [Compound 168] | 107 nM | 64 nM |
| Cc1ncsc1CCCCCCC(=O)C(=O)NCc1nnc(-c2ccc(OCc3cccc(F)c3)cc2)s1 [Compound 154, N-((5-(4-((3-fluorobenzyl)oxy)phenyl)-1,3,4-thiadiazol-2-yl)methyl)-8-(4-methylthiazol-5-yl)-2-oxooctanamide] | 36 nM | 47 nM |
| O=C(CCCCCCc1ccccc1)C(=O)NCc1nnc(-c2ccc(OCc3cccc(Cl)n3)cc2)s1 [Compound 164] | 751 nM | 232 nM |
| Cc1ncsc1CCCCCCC(=O)C(=O)NCc1nnc(-c2ccc(OCc3ccncc3)cc2)s1 [Compound 166] | 809 nM | 479 nM |
| O=C(CCCCCCc1cccc(F)c1)C(=O)NCc1nnc(-c2ccc3ccccc3c2)o1 [Compound 28] | 224 nM | 127 nM |
| O=C(CCCCCCc1ccccc1)C(=O)NCc1nnc(-c2ccc(OCc3cc(F)cc(F)c3)cc2)s1 [Compound 146] | 2320 nM | 224 nM |
| O=C(CCCCCCc1ccncc1)C(=O)NCc1nnc(-c2ccccc2)o1 [Compound 42] | 4650 nM | 2730 nM |
| O=C(CCCCCc1ccc(F)cc1)C(=O)NCc1nnc(-c2ccc3ccccc3c2)o1 [Compound 38] | 613 nM | 475 nM |
| O=C(CCCCCOc1ccccc1)C(=O)NCc1nnc(-c2ccc3ccccc3c2)o1 [Compound 48] | 1960 nM | 1710 nM |
| Cc1ccc(-c2nnc(CNC(=O)C(=O)CCCCCc3ccc(F)cc3)o2)cc1 [Compound 39] | 643 nM | 772 nM |
| N#Cc1ccc(CCCCCCC(=O)C(=O)NCc2nnc(-c3ccccc3)o2)cc1 [Compound 44] | 951 nM | 641 nM |
| O=C(CCCCCCc1ccccc1)C(=O)NCc1nnc(-c2ccc(OCc3ccc4ccccc4n3)cc2)o1 [Compound 89] | 565 nM | 232 nM |
| O=C(CCCCCOc1cc(F)cc(F)c1)C(=O)NCc1nnc(-c2ccccc2)s1 [Compound 108] | 626 nM | 1170 nM |
